PubChem BioAssay (NCI)
Converted amounts (≈) assume the structure as drawn.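 1) Cells in 96-well plates. 2) Compound, 48 h, 5 concentrations. 3) Linear interpolation between surrounding doses. 4) Unreached endpoint = highest concentration. GI50 marks 50% less growth. TGI is the concentration that stops growth completely.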

Assays:
Assay in all cases: DTP human tumour cell line panel, 48 h
CCRF-CEM leukemia = test system: CCRF-CEM leukemia
EKVX NSCLC = test system: EKVX NSCLC
HCT-116 colon = test system: HCT-116 colon
HL-60(TB) leukemia = test system: HL-60(TB) leukemia
HS 578T breast = test system: HS 578T breast
786-0 renal = test system: 786-0 renal
A498 renal = test system: A498 renal
A549 NSCLC = test system: A549 NSCLC
ACHN renal = test system: ACHN renal
BT-549 breast = test system: BT-549 breast
CAKI-1 renal = test system: CAKI-1 renal
COLO 205 colon = test system: COLO 205 colon
DU-145 prostate = test system: DU-145 prostate
HCT-15 colon = test system: HCT-15 colon
HOP-62 NSCLC = test system: HOP-62 NSCLC
HOP-92 NSCLC = test system: HOP-92 NSCLC
HT29 colon = test system: HT29 colon
IGROV1 ovarian = test system: IGROV1 ovarian
K-562 leukemia = test system: K-562 leukemia
KM12 colon = test system: KM12 colon
LOX IMVI melanoma = test system: LOX IMVI melanoma
M14 melanoma = test system: M14 melanoma
MALME-3M melanoma = test system: MALME-3M melanoma
MCF7 breast = test system: MCF7 breast
MDA-MB-231 breast = test system: MDA-MB-231 breast
MOLT-4 leukemia = test system: MOLT-4 leukemia
NCI-H226 lung = test system: NCI-H226 lung
NCI-H23 lung = test system: NCI-H23 lung
NCI-H522 lung = test system: NCI-H522 lung
NCI/ADR-RES ovarian = test system: NCI/ADR-RES ovarian
OVCAR-3 ovarian = test system: OVCAR-3 ovarian
OVCAR-4 ovarian = test system: OVCAR-4 ovarian
OVCAR-5 ovarian = test system: OVCAR-5 ovarian
OVCAR-8 ovarian = test system: OVCAR-8 ovarian
PC-3 prostate = test system: PC-3 prostate
RPMI-8226 leukemia = test system: RPMI-8226 leukemia
RXF 393 renal = test system: RXF 393 renal
SF-268 CNS = test system: SF-268 CNS
SF-295 CNS = test system: SF-295 CNS
SF-539 CNS = test system: SF-539 CNS
SK-MEL-2 melanoma = test system: SK-MEL-2 melanoma
SK-MEL-28 melanoma = test system: SK-MEL-28 melanoma
SK-MEL-5 melanoma = test system: SK-MEL-5 melanoma
SK-OV-3 ovarian = test system: SK-OV-3 ovarian
SN12C renal = test system: SN12C renal
SNB-19 CNS = test system: SNB-19 CNS
SNB-75 CNS = test system: SNB-75 CNS
SW-620 colon = test system: SW-620 colon
T-47D breast = test system: T-47D breast
TK-10 renal = test system: TK-10 renal
U251 CNS = test system: U251 CNS
UACC-257 melanoma = test system: UACC-257 melanoma
UACC-62 melanoma = test system: UACC-62 melanoma
UO-31 renal = test system: UO-31 renal
HCC-2998 colon = test system: HCC-2998 colon
MDA-MB-435 = test system: MDA-MB-435
NCI-H460 lung = test system: NCI-H460 lung
SR leukemia = test system: SR leukemia

Q: For CCCOC(C)OCCC#CCC(C)OC(=O)CC(Cl)(Cl)Cl (stereo unspecified), which GI50 (CCRF-CEM leukemia) is on record?
A: Its GI50 is 22.6 µg/mL (≈ 60.4 µM).

Q: And the GI50 (EKVX NSCLC)?
A: Its GI50 is 98.4 µg/mL (≈ 263 µM).

Q: And the GI50 (HCT-116 colon)?
A: Its GI50 is 50.8 µg/mL (≈ 136 µM).

Q: What about the GI50 (HL-60(TB) leukemia) of the same molecule?
A: The GI50 was 46.5 µg/mL (≈ 125 µM).

Q: What about the GI50 (HS 578T breast) of the same molecule?
A: Its GI50 is 56.8 µg/mL (≈ 152 µM).

Q: Which results are given for O=C1C=C(C2=CC(=O)C(=O)c3ccccc32)c2ccccc2C1=O?
A: TGI (786-0 renal): > 100 µM; TGI (A498 renal): > 100 µM; TGI (A549 NSCLC): > 100 µM; TGI (ACHN renal): > 100 µM; TGI (BT-549 breast): > 100 µM; TGI (CAKI-1 renal): 47.8 µM; TGI (CCRF-CEM leukemia): > 100 µM; TGI (COLO 205 colon): 38.9 µM; TGI (DU-145 prostate): 29.4 µM; TGI (EKVX NSCLC): > 100 µM; TGI (HCT-116 colon): 50.1 µM; TGI (HCT-15 colon): > 100 µM; TGI (HL-60(TB) leukemia): > 100 µM; TGI (HOP-62 NSCLC): 64.6 µM; TGI (HOP-92 NSCLC): 39.3 µM; TGI (HS 578T breast): 90.7 µM; TGI (HT29 colon): > 100 µM; TGI (IGROV1 ovarian): > 100 µM; TGI (K-562 leukemia): > 100 µM; TGI (KM12 colon): 39.8 µM; TGI (LOX IMVI melanoma): > 100 µM; TGI (M14 melanoma): > 100 µM; TGI (MALME-3M melanoma): > 100 µM; TGI (MCF7 breast): 48.3 µM; TGI (MDA-MB-231 breast): 53.3 µM; TGI (MOLT-4 leukemia): 15.4 µM; TGI (NCI-H226 lung): > 100 µM; TGI (NCI-H23 lung): > 100 µM; TGI (NCI-H522 lung): > 100 µM; TGI (NCI/ADR-RES ovarian): > 100 µM; TGI (OVCAR-3 ovarian): 20.7 µM; TGI (OVCAR-4 ovarian): > 100 µM; TGI (OVCAR-5 ovarian): 44.2 µM; TGI (OVCAR-8 ovarian): 75.7 µM; TGI (PC-3 prostate): 37.3 µM; TGI (RPMI-8226 leukemia): 46.2 µM; TGI (RXF 393 renal): > 100 µM; TGI (SF-268 CNS): 48.3 µM; TGI (SF-295 CNS): 66.5 µM; TGI (SF-539 CNS): 82.4 µM; TGI (SK-MEL-2 melanoma): 72.3 µM; TGI (SK-MEL-28 melanoma): > 100 µM; TGI (SK-MEL-5 melanoma): 8.17 µM; TGI (SK-OV-3 ovarian): > 100 µM; TGI (SN12C renal): > 100 µM; TGI (SNB-19 CNS): 53.2 µM; TGI (SNB-75 CNS): 60.1 µM; TGI (SW-620 colon): 31.4 µM; TGI (T-47D breast): 56.1 µM; TGI (TK-10 renal): 75.4 µM; TGI (U251 CNS): > 100 µM; TGI (UACC-257 melanoma): > 100 µM; TGI (UACC-62 melanoma): > 100 µM; TGI (UO-31 renal): > 100 µM

Q: For Cc1ccc2c(c1)C(C(=O)N[C@@H]1C(=O)N3[C@@H]1SC(C)(C)[C@@H]3C(=O)O)OCCC2 (stereo partly specified), which TGI (786-0 renal) is on record?
A: The TGI was over 100 µM.

Q: What about the TGI (A498 renal) of the same molecule?
A: The TGI was over 100 µM.

Q: And the TGI (A549 NSCLC)?
A: The TGI was over 100 µM.

Q: What about the TGI (ACHN renal) of the same molecule?
A: Its TGI is over 100 µM.

Q: What about the TGI (BT-549 breast) of the same molecule?
A: Its TGI is over 100 µM.

Q: What about the TGI (CAKI-1 renal) of the same molecule?
A: The TGI was over 100 µM.

Q: What about the TGI (CCRF-CEM leukemia) of the same molecule?
A: Its TGI is over 100 µM.

Q: And the TGI (COLO 205 colon)?
A: Its TGI is over 100 µM.

Q: And the TGI (DU-145 prostate)?
A: The TGI was over 100 µM.

Q: And the TGI (EKVX NSCLC)?
A: The TGI was over 100 µM.

Q: What about the TGI (HCC-2998 colon) of the same molecule?
A: The TGI was over 100 µM.

Q: And the TGI (HCT-116 colon)?
A: Its TGI is over 100 µM.

Q: What about the TGI (HCT-15 colon) of the same molecule?
A: Its TGI is over 100 µM.

Q: What about the TGI (HL-60(TB) leukemia) of the same molecule?
A: The TGI was over 100 µM.

Q: What about the TGI (HOP-62 NSCLC) of the same molecule?
A: The TGI was over 100 µM.

Q: What about the TGI (HOP-92 NSCLC) of the same molecule?
A: The TGI was over 100 µM.

Q: And the TGI (HS 578T breast)?
A: Its TGI is over 100 µM.

Q: And the TGI (HT29 colon)?
A: Its TGI is over 100 µM.

Q: What about the TGI (IGROV1 ovarian) of the same molecule?
A: Its TGI is over 100 µM.

Q: And the TGI (K-562 leukemia)?
A: The TGI was over 100 µM.

Q: What about the TGI (KM12 colon) of the same molecule?
A: Its TGI is over 100 µM.

Q: And the TGI (LOX IMVI melanoma)?
A: Its TGI is over 100 µM.

Q: What about the TGI (M14 melanoma) of the same molecule?
A: The TGI was over 100 µM.

Q: What about the TGI (MCF7 breast) of the same molecule?
A: The TGI was over 100 µM.

Q: And the TGI (MDA-MB-231 breast)?
A: The TGI was over 100 µM.

Q: And the TGI (MDA-MB-435)?
A: Its TGI is over 100 µM.

Q: And the TGI (MOLT-4 leukemia)?
A: The TGI was over 100 µM.

Q: And the TGI (NCI-H226 lung)?
A: The TGI was over 100 µM.

Q: What about the TGI (NCI-H23 lung) of the same molecule?
A: The TGI was over 100 µM.

Q: And the TGI (NCI-H460 lung)?
A: Its TGI is over 100 µM.

Q: What about the TGI (NCI-H522 lung) of the same molecule?
A: The TGI was over 100 µM.

Q: And the TGI (NCI/ADR-RES ovarian)?
A: The TGI was over 100 µM.

Q: And the TGI (OVCAR-3 ovarian)?
A: The TGI was over 100 µM.

Q: And the TGI (OVCAR-4 ovarian)?
A: The TGI was over 100 µM.

Q: And the TGI (OVCAR-5 ovarian)?
A: The TGI was over 100 µM.

Q: What about the TGI (OVCAR-8 ovarian) of the same molecule?
A: The TGI was over 100 µM.

Q: And the TGI (PC-3 prostate)?
A: The TGI was over 100 µM.

Q: What about the TGI (RPMI-8226 leukemia) of the same molecule?
A: The TGI was over 100 µM.

Q: And the TGI (RXF 393 renal)?
A: Its TGI is over 100 µM.

Q: And the TGI (SF-268 CNS)?
A: Its TGI is over 100 µM.

Q: What about the TGI (SF-295 CNS) of the same molecule?
A: Its TGI is over 100 µM.

Q: What about the TGI (SF-539 CNS) of the same molecule?
A: The TGI was over 100 µM.

Q: And the TGI (SK-MEL-2 melanoma)?
A: The TGI was over 100 µM.

Q: And the TGI (SK-MEL-28 melanoma)?
A: The TGI was over 100 µM.

Q: And the TGI (SK-MEL-5 melanoma)?
A: The TGI was over 100 µM.

Q: And the TGI (SK-OV-3 ovarian)?
A: The TGI was over 100 µM.

Q: And the TGI (SN12C renal)?
A: Its TGI is over 100 µM.

Q: And the TGI (SNB-19 CNS)?
A: Its TGI is over 100 µM.

Q: What about the TGI (SNB-75 CNS) of the same molecule?
A: Its TGI is over 100 µM.

Q: And the TGI (SR leukemia)?
A: The TGI was over 100 µM.

Q: What about the TGI (SW-620 colon) of the same molecule?
A: Its TGI is over 100 µM.

Q: And the TGI (T-47D breast)?
A: Its TGI is over 100 µM.

Q: What about the TGI (TK-10 renal) of the same molecule?
A: Its TGI is over 100 µM.

Q: What about the TGI (U251 CNS) of the same molecule?
A: The TGI was over 100 µM.

Q: And the TGI (UACC-257 melanoma)?
A: Its TGI is over 100 µM.

Q: What about the TGI (UACC-62 melanoma) of the same molecule?
A: Its TGI is over 100 µM.

Q: And the TGI (UO-31 renal)?
A: The TGI was over 100 µM.
